Consider 18 molecules from US12528777B2, “Quinazolinones derivatives for treatment of non-alcoholic fatty liver disease, preparation and use thereof” (Council of Scientific and Industrial Research, priority 2020, dated 2026).

One experiment concerns HepG2 cells. Kind of experiment: Confocal microscopy: lipid droplets in oleate induced HepG2 cells. In kind it is cell-based. More on the design: key to Reduction in Lipid Droplets: + = slight or in insignificant; ++ = Moderate; +++ and ++++ = active; +++ and ++++ = active; +++++ = very active. Conditions: for Reduction in Lipid Droplets: oleate induced HepG2 cells, score; for Number of lipid droplets: HepG2 cells, 250 μM oleate induction. The protocol: To select the compounds capable of inhibiting the ubiquitination of ATGL by COP1 by targeting the VP motif, confocal microscopy was performed with the provided molecules. If the compound was effective in inhibiting the interaction, there would be a reduction in the number of fat droplets in the cells after treatment. […] With this rationale in mind, HepG2 cells were induced to accumulate lipid droplets after treatment with 250 µM of oleate and 10 μM of the specific compounds were added. The potential of the compounds to bring about a reduction in the number of fat droplets was then checked by comparison with oleate induced cells by counting number of droplets of approximately 20 cells from each treatment and calculating the average number of lipid droplets of each cell. The selected compounds were then subjected to dose dependent treatments and the ones which could maintain its potency to reduce fat droplets at lower doses were then selected for western blot analysis. The compound which could reduce the number of fat droplets in the cells are expected to raise the levels of ATGL since they are likely to deter COP1 from ubiquitinating ATGL. This increase will be visible only in the protein level and gene expression is likely to remain unchanged since ubiquitination is a […] modification. Thus, western blot was performed to check ATGL levels in the cells with the selected molecules.
HepG2 cells were plated in confocal dishes (SPL, Genetix Biotech Asia Pvt. Ltd.). The cells were allowed to adhere and divide for 16 hours. 10 μM for initial screening and 10 nM, 20 nM, 50 nM, 100 nM, 200 nM, 500 nM, 1 μM and 5 μM for dose dependent assays of the compounds 9 and 107 were dissolved in DMSO and added to the cells. 250 μM of oleate was used for induction. BSA (Sigma Aldrich) was used as a negative control. Post 24 hours of treatment, media was decanted from the cells and washed with 1×PBS solution to remove any remnant. 200 μl of staining solution containing 200 ng/ml BODIPY (Invitrogen) and 25 µg/ml HOECKST342 (Invitrogen) were added to the cells and incubated at 37° C. for 30 minutes under dark conditions. Cells were washed 3 times with 1×PBS to remove excess stain. FLUOVIEW FV10i (Olympus) was used to visualise the cells.

The next experiment relates to ATGL. Kind of experiment: Western blot of ATGL level in HepG2 cells. In kind it is cell-based. More on the design: key to Increase in ATGL level: + = slight or in insignificant; ++ = Moderate; +++ and ++++ = active; +++ and ++++ = active; +++++ = very active. Conditions: western blot; for Increase in ATGL level: HepG2 cells, score; for ATGL level in HepG2 cells: 24 hours, 10 μM screening or 50 nM-5 μM dose dependent. The method, boiled down: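 HepG2 cells were treated with compound 24 h (10 μM screen; 50 nM–5 μM dose series) and lysed. 30 μg protein was western blotted for ATGL, with actin as loading reference. ATGL increase was expressed as percent of the 1.6-fold siCOP1 maximum and plotted against log concentration for EC50.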

`COCCn1cnc2ccc(NC(=O)Nc3ccc(F)c(Cl)c3)cc2c1=O` [Compound 36, 1-(3-chloro-4-fluorophenyl)-3-(3-(2-methoxyethyl)-4-oxo-3,4-dihydroquinazolin-6-yl)urea]: in the experiment with HepG2 cells, the “Reduction in Lipid Droplets” value was “+”. In addition, in the experiment on ATGL, the “Increase in ATGL level” value is on record as “+++”.

On to `CC(=O)c1cccc(NC(=O)Nc2ccc3ncn(CCN4CCCCC4)c(=O)c3c2)c1` [Compound 147, 1-(3-acetylphenyl)-3-(4-oxo-3-(2-(piperidin-1-yl)ethyl)-3,4-dihydroquinazolin-6-yl)urea], for which, in the experiment with HepG2 cells, the “Number of lipid droplets” value is given as “reduction in lipid droplets” and the “Reduction in Lipid Droplets” value is “++”. Further, in the experiment on ATGL, the “Increase in ATGL level” value is listed as “+++” and the “ATGL level in HepG2 cells” value was “some sort of increase in ATGL level”.

Consider `CCOC(=O)c1cccc(NC(=O)Nc2ccc3ncn(CCOC)c(=O)c3c2)c1` [Compound 42, ethyl 3-(3-(3-(2-methoxyethyl)-4-oxo-3,4-dihydroquinazolin-6-yl)ureido)benzoate], for which the “Reduction in Lipid Droplets” value with HepG2 cells is on record as “+”. In addition, the “Increase in ATGL level” value in the experiment on ATGL is listed as “+”.

In the case of `COCCn1cnc2ccc(NC(=O)Nc3cccc([N+](=O)[O-])c3)cc2c1=O` [Compound 8, 1-(3-(2-methoxyethyl)-4-oxo-3,4-dihydroquinazolin-6-yl)-3-(3-nitrophenyl)urea], the “Reduction in Lipid Droplets” value with HepG2 cells is given as “++”. Besides, the “Increase in ATGL level” value in the experiment on ATGL is given as “+”.

On to `CCc1cccc(NC(=O)Nc2ccc3ncn(CCOC)c(=O)c3c2)c1` [Compound 13, 1-(3-ethylphenyl)-3-(3-(2-methoxyethyl)-4-oxo-3,4-dihydroquinazolin-6-yl)urea], for which the “Reduction in Lipid Droplets” value in the experiment on HepG2 cells was “+”. Besides, in the experiment on ATGL, the “Increase in ATGL level” value is “+”.

As for `COCCn1cnc2ccc(NC(=O)Nc3cccc(-c4nc5ccccc5o4)c3)cc2c1=O` [Compound 21, 1-(3-(benzo[d]oxazol-2-yl)phenyl)-3-(3-(2-methoxyethyl)-4-oxo-3,4-dihydroquinazolin-6-yl)urea], the “Reduction in Lipid Droplets” value in the experiment on HepG2 cells is reported as “+”. For the same molecule, in the experiment on ATGL, the “Increase in ATGL level” value is on record as “+”.

In the case of `COCCn1c(-c2ccc(OC)cc2)nc2ccc(NC(=O)Nc3cccc(C(C)=O)c3)cc2c1=O` [Compound 119, 1-(3-acetylphenyl)-3-(3-(2-methoxyethyl)-2-(4-methoxyphenyl)-4-oxo-3,4-dihydroquinazolin-6-yl)urea], the “Reduction in Lipid Droplets” value in the experiment on HepG2 cells was “+”. The “Increase in ATGL level” value with ATGL is given as “+”.

`COCCn1cnc2ccc(NC(=O)Nc3cccc(C(=O)NC(C(=O)OC)C(C)C)c3)cc2c1=O` (stereo not shown) [Compound 16, methyl 2-(3-(3-(3-(2-methoxyethyl)-4-oxo-3,4-dihydroquinazolin-6-yl)ureido)benzamido)-3-methylbutanoate]: the “Reduction in Lipid Droplets” value in the experiment on HepG2 cells is reported as “+++”. In addition, in the experiment with ATGL, the “Increase in ATGL level” value is recorded as “++++”.

In the case of `CC(=O)c1cccc(NC(=O)Nc2ccc3ncn(CCN4CCOCC4)c(=O)c3c2)c1` [Compound 135, 1-(3-acetylphenyl)-3-(3-(2-morpholinoethyl)-4-oxo-3,4-dihydroquinazolin-6-yl)urea], in the experiment with HepG2 cells, the “Number of lipid droplets” value is given as “reduction in lipid droplets” and the “Reduction in Lipid Droplets” value is “++”. Further, in the experiment on ATGL, the “Increase in ATGL level” value is recorded as “+++” and the “ATGL level in HepG2 cells” value is “some sort of increase in ATGL level”.

In the case of `CC(=O)c1cccc(NC(=O)Nc2ccc3ncn(C4CCN(C)CC4)c(=O)c3c2)c1` [Compound 163, 1-(3-acetylphenyl)-3-(3-(1-methylpiperidin-4-yl)-4-oxo-3,4-dihydroquinazolin-6-yl)urea], in the experiment on HepG2 cells, the “Number of lipid droplets” value is listed as “reduction in lipid droplets” and the “Reduction in Lipid Droplets” value is “++”. In addition, in the experiment with ATGL, the “Increase in ATGL level” value was “+” and the “ATGL level in HepG2 cells” value is reported as “some sort of increase in ATGL level”.

With `COCCn1cnc2ccc(NC(=O)Nc3cccc(N(C)C(C)=O)c3)cc2c1=O` [Compound 23, N-(3-(3-(3-(2-methoxyethyl)-4-oxo-3,4-dihydroquinazolin-6-yl)ureido)phenyl)-N-methylacetamide], in the experiment on HepG2 cells, the “Reduction in Lipid Droplets” value is “++”. In the experiment on ATGL, the “Increase in ATGL level” value was “++++” and the “ATGL level in HepG2 cells” value was “increased ATGL level”.

For the molecule `COCCn1c(-c2ccc(F)cc2)nc2ccc(NC(=O)Nc3cccc(C(C)=O)c3)cc2c1=O` [Compound 115, 1-(3-acetylphenyl)-3-(2-(4-fluorophenyl)-3-(2-methoxyethyl)-4-oxo-3,4-dihydroquinazolin-6-yl)urea], the “Reduction in Lipid Droplets” value in the experiment on HepG2 cells is listed as “+”. Besides, the “Increase in ATGL level” value with ATGL was “+”.

In the case of `COCCn1cnc2ccc(NC(=O)Nc3ccc(OC(F)(F)F)cc3)cc2c1=O` [Compound 37, 1-(3-(2-methoxyethyl)-4-oxo-3,4-dihydroquinazolin-6-yl)-3-(4-(trifluoromethoxy)phenyl)urea], the “Reduction in Lipid Droplets” value in the experiment on HepG2 cells was “+”. For the same molecule, the “Increase in ATGL level” value in the experiment on ATGL is given as “+”.

In the case of `CCOC(=O)Cn1cnc2ccc(NC(=O)Nc3cccc(C(C)=O)c3)cc2c1=O` [Compound 85, ethyl 2-(6-(3-(3-acetylphenyl)ureido)-4-oxoquinazolin-3 (4H)-yl)acetate], the “Reduction in Lipid Droplets” value in the experiment on HepG2 cells is listed as “+”. Also, in the experiment with ATGL, the “Increase in ATGL level” value is on record as “+”.

As to `COCCn1cnc2ccc(NC(=O)Nc3cccc(OC)c3)cc2c1=O` [Compound 6, 1-(3-(2-methoxyethyl)-4-oxo-3,4-dihydroquinazolin-6-yl)-3-(3-methoxyphenyl)urea], in the experiment on HepG2 cells, the “Number of lipid droplets” value is “reduction of lipid droplet” and the “Reduction in Lipid Droplets” value is reported as “++++”. In the experiment with ATGL, the “Increase in ATGL level” value is given as “++++” and the “ATGL level in HepG2 cells” value is “increase in ATGL level”.

In the case of `COCCn1cnc2cc(NC(=O)Nc3ccc(C(C)=O)cc3)ccc2c1=O` [Compound 193, 1-(4-acetylphenyl)-3-(3-(2-methoxyethyl)-4-oxo-3,4-dihydroquinazolin-7-yl)urea], the “Reduction in Lipid Droplets” value with HepG2 cells is “+”. Also, the “Increase in ATGL level” value with ATGL is “+”.

As for `CCOC(=O)Cn1cnc2ccc(NC(=O)Nc3ccc(F)c(Cl)c3)cc2c1=O` [Compound 83, ethyl 2-(6-(3-(3-chloro-4-fluorophenyl)ureido)-4-oxoquinazolin-3 (4H)-yl)acetate], in the experiment on HepG2 cells, the “Reduction in Lipid Droplets” value is “+”. In addition, the “Increase in ATGL level” value in the experiment with ATGL is given as “+”.

Consider `CC(=O)c1cccc(NC(=O)Nc2ccc3ncn(-c4ccccn4)c(=O)c3c2)c1` [Compound 159, 1-(3-acetylphenyl)-3-(4-oxo-3-(pyridin-2-yl)-3,4-dihydroquinazolin-6-yl)urea], for which the “Number of lipid droplets” value with HepG2 cells was “reduction in lipid droplets”. Moreover, in the experiment on ATGL, the “Increase in ATGL level” value is “+” and the “ATGL level in HepG2 cells” value is reported as “some sort of increase in ATGL level”.
